Test results published in US8642545B2, “Erythropoietin mimetic peptide derivative and its pharmaceutical salts, the preparation and uses thereof” (Jiangsu Hansoh Pharmaceutical Co., Ltd, priority 2007, dated 2014).
pKd: −log10 of the molar value. Read-outs that look alike come from different tables or passages of the source. *1 amine or outer side, *2 acyl side, *3 side chain or, on linkers, in order; H or OH if unused. Bridges are numbered along the chain shown (N, C = ends). Roman numbers before positions name the chains, in order. [ ]: non-standard residue; d: D form. ξ: configuration not given here. X1 = NCCNC(=O)OC(CCC(=O)[*:1])CCC(=O)[*:2]; Nle = CCCC[C@H](N)C(=O)O; ξK = NCCCCC(N)C(=O)O; βAla = NCCC(=O)O

Columns and labels:
erythropoiesis of mice = assay: Effects of EPO mimetic peptide derivatives on mice, sc injection on three consecutive days, peripheral blood cell and reticulocyte counts; format: in vivo, Kunming mice; details: for Platelet / White Blood Cell: 4.5 mg/kg
Experimental: The biological activity of EPO, or EPO mimetic peptide derivatives and their pharmaceutical salts provided by this invention can be determined by various assays known in this field. Testing of in vivo activity is performed as follows: mice are subcutaneously injected with EPO and EPO mimetic peptide derivatives and their pharmaceutical salts provided by this invention on three consecutive days. The mice are then sacrificed. The whole blood is taken to carry out peripheral blood cells and reticulocyte count. The blood cell count is performed by automatic blood cell counter. […] The dose of EPO protein as a control drug is 240 μ/kg. The drugs are administered three times per week and the administration continues for six weeks. The blood samples are collected to carry out related hematological index analysis. The purpose of the experiments is to evaluate and compare the effects of EPO mimetic peptide derivatives and the EPO protein on erythropoiesis of mice. […] EPO is purchased from […] Pharmaceutical Co., Ltd. Kunming mice are purchased from the Chinese Academy of Sciences Shanghai Experimental Animal Center, weighing 25 30 g, ♀. The number of animals in each group is 10. Mice are injected subcutaneously with EPO mimetic peptide derivatives and EPO protein for three consecutive days. Then the mice are killed, the whole blood is used to carry out peripheral blood cells and reticulocyte counts. Blood cell count is performed using automatic blood cell counter counts.

[1] = test system: EPO binding sites on red blood cells from the spleen; details: about 400 binding sites, some, cited from earlier work
[2] = test system: EPO binding sites on immature red blood cells; details: cited from earlier work
[3] = test system: erythropoiesis of the macaques; assay: Effects of EPO mimetic peptide derivatives on macaques, hematological indexes; format: in vivo
Experimental: The biological activity of EPO, or EPO mimetic peptide derivatives and their pharmaceutical salts provided by this invention can be determined by various assays known in this field. Testing of in vivo activity is performed as follows: mice are subcutaneously injected with EPO and EPO mimetic peptide derivatives and their pharmaceutical salts provided by this invention on three consecutive days. The mice are then sacrificed. The whole blood is taken to carry out peripheral blood cells and reticulocyte count. The blood cell count is performed by automatic blood cell counter. Pharmacodynamic studies are carried out by intravenous administration to macaques with a dose of 1.35 mg/kg. The dose of EPO protein as a control drug is 240 μ/kg. The drugs are administered three times per week and the administration continues for six weeks. The blood samples are collected to carry out related hematological index analysis.
The purpose of this experiment is to evaluate the effects of EPO mimetic peptide derivatives on erythropoiesis of the macaques.
EPO mimetic peptide HH-EPO-018 is provided by Jiangsu Hansoh Pharmaceutical co., LTD. EPO is purchased from Shenyang Sansheng Pharmaceutical Co., Ltd. The samples are diluted in a saline containing 0.1% BSA before they are used.
Macaques, weighing 5.5˜8.5 kg, male or female, are purchased from Suzhou Xishan Zhongke Laboratory Animal Center. Macaques are grouped according to the basis of hemoglobin with each group having three macaques. HH-EPO-018 is intravenously injected once at a dose of 1.35 mg/kg; EPO is injected three times per week at a dose of 240 μg/kg. The administration is continued for five weeks. Measure hematological indexes are measured 1˜2 times per week.

[4] = current dosage regimen, three consecutive days
[5] = macaques, 240 μg/kg three times per week, five weeks

EPO: EPO protein purchased from Shenyang Sansheng Pharmaceutical Co., Ltd.; control drug
influence on mature red blood cells, blood cell hematocrit, hemoglobin content (in words) (erythropoiesis of mice; [4]): no significant influence
mouse peripheral blood reticulocyte count (in words) (erythropoiesis of mice; [4]): significantly promote the increase
Blood Cell Hematocrit (erythropoiesis of mice; mouse, 5 μg/kg, d1-3): 46.2 ± 2.7%
Red Blood Cell Count (erythropoiesis of mice; mouse, 5 μg/kg, d1-3, x ± SD): 9.0 ± 0.6 ×10^6/μL
Reticulocyte Count (erythropoiesis of mice; mouse, 5 μg/kg, d1-3, x ± SD): 483.9 ± 146.5 ×10^9/L
influence on the peripheral white blood cell count (in words) (erythropoiesis of mice; mouse, in vivo): no significant influence
pKd ([1]; "high Kd"): 10.00
pKd ([1]; "low Kd"): 9.10
pKd ([2]; about 300 binding sites of about 800 to 1000 per cell membrane): 10.05
pKd ([2]; remaining binding sites, weak binding): ~9.24
stimulation on macaque hemoglobin generation, HH-EPO-018 compared with EPO (in words) ([3]; according to the current dosing regimens): similar
blood cell hematocrit (in words) [3, 5]: increases
peripheral blood hemoglobin content (in words) [3, 5]: increases

I: Ac-GGTYSC[Nle]FGPLTWVCRPQRG[βAla][ξK]-NH2 / II: Ac-GGTYSC[Nle]FGPLTWVCRPQRG[βAla][ξK]-NH2 (disulfide I:6-I:15, II:6-II:15; linker I:22-II:22 via X1) [HH-EPO-006]
Platelet (erythropoiesis of mice; mouse, d1-3): 1087.8 ± 118.5 ×10^3/μL
White Blood Cell (erythropoiesis of mice; mouse, d1-3): 4.1 ± 1.2 ×10^3/μL

I: Ac-GGTYSCHFGALTWVCRPQRG[βAla][ξK]-NH2 / II: Ac-GGTYSCHFGALTWVCRPQRG[βAla][ξK]-NH2 (disulfide I:6-I:15, II:6-II:15; linker I:22-II:22 via X1) [HH-EPO-008]
Platelet (erythropoiesis of mice; mouse, d1-3): 1685.5 ± 351.3 ×10^3/μL
White Blood Cell (erythropoiesis of mice; mouse, d1-3): 2.9 ± 0.5 ×10^3/μL

I: Ac-GGTYSCHFGPLTWVCRPQRG[βAla][ξK]-NH2 / II: Ac-GGTYSCHFGPLTWVCRPQRG[βAla][ξK]-NH2 (disulfide I:6-I:15, II:6-II:15; linker I:22-II:22 via X1) [HH-EPO-005]
Platelet (erythropoiesis of mice; mouse, d1-3): 1957.8 ± 349.5 ×10^3/μL
White Blood Cell (erythropoiesis of mice; mouse, d1-3): 4.2 ± 1.2 ×10^3/μL

I: Ac-GGTYSCHFGSLTWVCRPQRG[βAla][ξK]-NH2 / II: Ac-GGTYSCHFGSLTWVCRPQRG[βAla][ξK]-NH2 (disulfide I:6-I:15, II:6-II:15; linker I:22-II:22 via X1) [HH-EPO-007]
Platelet (erythropoiesis of mice; mouse, d1-3): 2082.1 ± 863.9 ×10^3/μL
White Blood Cell (erythropoiesis of mice; mouse, d1-3): 3.6 ± 0.8 ×10^3/μL
